Values of other authors, collected in patent US7589137B2, “Resin composition and molded product obtained therefrom” (Sony Corporation, priority 2005, dated 2009).

Details: safety to a living body

Row | Structure (SMILES) | LD50
1 | Cc1cc(O)nc(O)n1 [6-methyluracil] | 64.5 g/kg
2 | O=c1cc[nH]c(=O)[nH]1 [Uracil, uracil] | several
